Measured values from BigSolDB 2.1.

CNC[C@H](O)[C@@H](O)[C@H](O)[C@H](O)CO.Cc1c(Nc2ncccc2C(=O)O)cccc1C(F)(F)F
solubility (mole fraction)
Conditions | 283.15 K | 288.15 K | 293.15 K | 298.15 K | 303.15 K | 308.15 K | 313.15 K | 318.15 K | 323.15 K | 328.15 K
in acetone | 0.00077 | 0.000937 | 0.00119 | 0.00158 | 0.00215 | 0.00275 | 0.00354 | 0.0048 | 0.00698 | 0.0104
in acetonitrile | 3.16e-05 | 3.86e-05 | 4.58e-05 | 6.88e-05 | 0.000109 | 0.000173 | 0.00025 | 0.00035 | 0.000517 | 0.000733
in ethanol | 0.00285 | 0.00353 | 0.00448 | 0.00576 | 0.00775 | 0.0113 | 0.0162 | 0.0228 | 0.0345 | 0.0502
in isopropanol | 0.000626 | 0.000759 | 0.000924 | 0.00118 | 0.00162 | 0.00198 | 0.00299 | 0.00433 | 0.00642 | 0.00934
in methanol | 0.0202 | 0.024 | 0.0293 | 0.0349 | 0.0448 | 0.0547 | 0.0652 | 0.08 | 0.0934 | 0.111
in water | 0.00738 | 0.00886 | 0.0111 | 0.0151 | 0.021 | 0.0286 | 0.0382 | 0.0504 | 0.0633 | 0.0807
